Results taken from patent US20260102407A1, “TREATMENT METHODS” (priority 2020, published 2026).

Experiments:
ERK phosphorylation = test: Western blot, IL-1β-inducible ERK phosphorylation in HMEC-1; type: cell-based, human
Description: Western blot analysis with extracts of cells treated with […]. HMEC-1 (80-90% confluency) were arrested in serum-free MCDB131 medium (Invitrogen, MD) without any growth factor for 48 h. Cells were treated with 30 μM compound in serum-free medium for 4 h, and incubated with 20 ng/ml IL-1β (Sigma, cat. SRE3083) in serum-free medium with the same concentration of compound for up to 4 h, unless otherwise indicated. Total protein was harvested as previously described using RIPA buffer with protease inhibitors. Proteins were resolved on 4-20% (w/v) SDS-polyacrylamide gradient gels and transferred to Immobilon-P PVDF membranes. Membranes were blocked with 5% skim milk and incubated with rabbit monoclonal FosB (cat. 2251S, 1:1000, Cell Signaling, USA), rabbit monoclonal VCAM-1 (cat. 13662S, 1:1000, Cell Signaling, USA), rabbit monoclonal p44/42 MAPK (cat. 4695S, 1:1000, Cell Signaling, USA), rabbit polyclonal p38 MAPK (cat. 9212S, 1:1000, Cell Signaling, USA), rabbit polyclonal SAPK/JNK (cat. 9252S, 1:1000, Cell Signaling, USA), rabbit monoclonal phospho-SAPK/JNK (cat. 4671S, 1:1000, Cell Signaling, USA), rabbit monoclonal phospho-p38 MAPK (cat. 4511S, 1:1000, Cell Signaling, USA), or, mouse monoclonal phospho-p44/42 MAPK antibodies (cat. 9106S, 1:2000, Cell Signaling, USA) at 4° C. overnight or mouse monoclonal β-actin antibodies (cat. A5316, 1:10000, Sigma-Aldrich) antibodies at 22° C. for 1 h. Membranes were then incubated with horseradish peroxidase conjugated secondary goat anti-rabbit (cat. P0448, 1:1000, DAKO Cytomation, Denmark) or goat anti-mouse (cat. P0447, 1:1000, DAKO Cytomation, Denmark) antibodies for 1 h. Chemiluminescence was detected using the Western Lightning Chemiluminescence system and ImageQuant™ LAS 4000 biomolecular imager. Band intensity in images generated with the LAS 4000 using the same settings were quantified by NIH ImageJ.

THP-1 adhesion to HMEC = test: Endothelial-monocytic cell adhesion assay; type: cell-based, human; settings: 20 ng/ml IL-1β, calcein-labeled THP-1
Description: Endothelial-monocytic cell adhesion assay. HMEC (80-90% confluency) in 96-well plates were deprived of serum for 24 h and treated with compound at indicated concentrations for 1 h then incubated with IL-1β (20 ng/ml) for 4 h. Meanwhile THP-1 were labeled with 5 μM calcein (5×10^6 cells/ml, BD Bioscience) for 30 min at 37° C. followed by washing 3 times with PBS. THP-1 (2.5×10^5 cells/well) were then added for 30 min, unbound cells were washed off 3 times in PBS. Adhesion of calcein-labeled THP-1 to the endothelium layer was determined in a fluorescent plate reader at excitation 485 nm and emission 530 nm.

Structure (SMILES): CCOC(=O)Nc1ccc2c(c1)C(=O)N(CC)c1ccccc1O2 [BT2, (10-ethyl-11-oxo-10,11-dihydro-dibenzo[b,f][1,4]oxazepin-2-yl)-carbamic acid ethyl ester]
- IL-1β-inducible ERK phosphorylation (Western blot) (ERK phosphorylation; 30 μM, 20 ng/ml IL-1β up to 4 h): inhibited
- inhibition of IL-1β-inducible ERK phosphorylation, potency relative to PD98059 (ERK phosphorylation; dose escalation 1-30 μM): more potently than PD98059
- THP-1 adhesion to IL-1β-treated endothelial cells (THP-1 adhesion to HMEC): inhibited by BT2
